Converted amounts (≈) assume the structure as drawn.
Columns and labels:
Assay type in all cases: functional
[1] = test system: Staphylococcus aureus; assay: Antimicrobial activity against Staphylococcus aureus ATCC 25923 incubated for 18 to 24 hrs
[2] = test system: Escherichia coli; assay: Antimicrobial activity against Escherichia coli ATCC 25922 incubated for 18 to 24 hrs
[3] = test system: Staphylococcus epidermidis; assay: Antimicrobial activity against methicillin-resistant Staphylococcus epidermidis 12-1 incubated for 18 to 24 hrs
[4] = test system: Staphylococcus aureus; assay: Antimicrobial activity against methicillin-resistant Staphylococcus aureus ATCC 12-1 incubated for 18 to 24 hrs
[5] = test system: Pseudomonas aeruginosa; assay: Antimicrobial activity against Pseudomonas aeruginosa ATCC 12-12 incubated for 18 to 24 hrs
[6] = test system: Pseudomonas aeruginosa; assay: Antimicrobial activity against Pseudomonas aeruginosa ATCC 9027 by agar well diffusion method
[7] = test system: Staphylococcus aureus; assay: Antimicrobial activity against Staphylococcus aureus ATCC 6538 by agar dilution method
[8] = test system: Escherichia coli; assay: Antimicrobial activity against Escherichia coli ATCC 8739 by agar dilution method
[9] = test system: Staphylococcus epidermidis; assay: Antimicrobial activity against methicillin-resistant Staphylococcus epidermidis clinical isolate incubated for 16 hrs by CLSI based agar dilution method
[10] = test system: Staphylococcus aureus; assay: Antimicrobial activity against methicillin-susceptible Staphylococcus aureus clinical isolate incubated for 16 hrs by CLSI based agar dilution method
[11] = test system: Klebsiella pneumoniae; assay: Antimicrobial activity against Klebsiella pneumoniae ATCC 29522 incubated for 16 hrs by CLSI-based agar dilution method; settings: ATCC 29522, 16 h
[12] = test system: Staphylococcus epidermidis; assay: Antimicrobial activity against methicillin-susceptible Staphylococcus epidermidis clinical isolate incubated for 16 hrs by CLSI based agar dilution method
[13] = test system: Staphylococcus aureus; assay: Antimicrobial activity against methicillin-resistant Staphylococcus aureus clinical isolate incubated for 16 hrs by CLSI based agar dilution method
[14] = test system: Escherichia coli; assay: Antimicrobial activity against Escherichia coli ATCC 700603 incubated for 16 hrs by CLSI-based agar dilution method; settings: ATCC 700603, 16 h

## CO/N=C1\CCN(c2c(F)cc3c(=O)c(C(=O)O)cn(C4CC4)c3c2OC)CC1NC(=O)[C@H](N)Cc1ccc(O)cc1 (some centres not stated)
[1]
  MIC: 2 µg/mL (≈ 3.44 µM)
[2]
  MIC: 16 µg/mL (≈ 27.5 µM)
[3]
  MIC: 64 µg/mL (≈ 110 µM)
[4]
  MIC: > 128 µg/mL
[5]
  MIC: 128 µg/mL (≈ 220 µM)

## CO/N=C1\CCN(c2c(F)cc3c(=O)c(C(=O)O)cn(C4CC4)c3c2OC)CC1NC(=O)[C@H](N)CO (some centres not stated)
[1]
  MIC: 1 µg/mL (≈ 1.98 µM)
[2]
  MIC: 16 µg/mL (≈ 31.7 µM)
[3]
  MIC: 64 µg/mL (≈ 127 µM)
[4]
  MIC: 64 µg/mL (≈ 127 µM)
[5]
  MIC: 128 µg/mL (≈ 253 µM)

## CCn1cc(C(=O)O)c(=O)c2cc(F)c(N3CCCC(C)C3)c(Cl)c21 (configuration not stated)
[6]
  MIC: 128 µg/mL (≈ 349 µM)
[7]
  MIC: 2 µg/mL (≈ 5.45 µM)
[8]
  MIC: 8 µg/mL (≈ 21.8 µM)

## CCn1cc(C(=O)O)c(=O)c2cc(F)c(N3CCNCC3)c(Cl)c21
[6]
  MIC: 32 µg/mL (≈ 90.5 µM)
[7]
  MIC: 4 µg/mL (≈ 11.3 µM)
[8]
  MIC: 2 µg/mL (≈ 5.65 µM)

## COc1c(N2C[C@@H]3CCCN(C[C@H](O)Cn4cc([N+](=O)[O-])nc4C)[C@@H]3C2)c(F)cc2c(=O)c(C(=O)O)cn(C3CC3)c12
[9]
  MIC: 0.03 µg/mL (≈ 0.0513 µM)
[10]
  MIC: 0.125 µg/mL (≈ 0.214 µM)
[11]
  MIC: 1 µg/mL (≈ 1.71 µM)
[12]
  MIC: 0.125 µg/mL (≈ 0.214 µM)
[13]
  MIC: 2 µg/mL (≈ 3.42 µM)
[14]
  MIC: 2 µg/mL (≈ 3.42 µM)

## CO/N=C1\CCN(c2c(F)cc3c(=O)c(C(=O)O)cn(C4CC4)c3c2OC)CC1NC(=O)[C@H](N)[C@H](C)O (some centres not stated)
[1]
  MIC: 2 µg/mL (≈ 3.85 µM)
[2]
  MIC: 16 µg/mL (≈ 30.8 µM)
[3]
  MIC: 64 µg/mL (≈ 123 µM)
[4]
  MIC: 128 µg/mL (≈ 246 µM)
[5]
  MIC: 64 µg/mL (≈ 123 µM)

## CCn1cc(C(=O)O)c(=O)c2cc(F)c(N3CCN(CC(O)Cn4cc([N+](=O)[O-])nc4Cl)CC3)nc21 (configuration not stated)
[9]
  MIC: 4 µg/mL (≈ 7.63 µM)
[10]
  MIC: 16 µg/mL (≈ 30.5 µM)
[11]
  MIC: > 32 µg/mL
[12]
  MIC: 2 µg/mL (≈ 3.82 µM)
[13]
  MIC: 32 µg/mL (≈ 61.1 µM)
[14]
  MIC: > 32 µg/mL

## CCn1cc(C(=O)O)c(=O)c2cc(F)c(N3CCCCC3)cc21
[6]
  MIC: 1.28 µg/mL (≈ 4.02 µM)
[7]
  MIC: < 0.125 µg/mL
[8]
  MIC: 32 µg/mL (≈ 101 µM)

## CO/N=C1\CCN(c2c(F)cc3c(=O)c(C(=O)O)cn(C4CC4)c3c2OC)CC1NC(=O)CNC(=O)CN (configuration not stated)
[1]
  MIC: 4 µg/mL (≈ 7.51 µM)
[2]
  MIC: 16 µg/mL (≈ 30 µM)
[3]
  MIC: 64 µg/mL (≈ 120 µM)
[4]
  MIC: > 128 µg/mL
[5]
  MIC: > 128 µg/mL

## N[C@@H]1CCN2c3c(F)cc4c(=O)c(C(=O)O)cn(C5CC5)c4c3CCCC[C@H]12
[6]
  MIC: 16 µg/mL (≈ 41.5 µM)
[7]
  MIC: 4 µg/mL (≈ 10.4 µM)
[8]
  MIC: 2 µg/mL (≈ 5.19 µM)

## CCn1cc(C(=O)O)c(=O)c2cc(F)c(N3CCCC3)cc21
[6]
  MIC: 16 µg/mL (≈ 52.6 µM)
[7]
  MIC: 0.25 µg/mL (≈ 0.822 µM)
[8]
  MIC: 16 µg/mL (≈ 52.6 µM)

## COc1c(N2CCCC(N(C)CC(O)Cn3cc([N+](=O)[O-])nc3C)C2)c(F)cc2c(=O)c(C(=O)O)cn(C3CC3)c12 (configuration not stated)
[9]
  MIC: 0.125 µg/mL (≈ 0.218 µM)
[10]
  MIC: 0.5 µg/mL (≈ 0.873 µM)
[11]
  MIC: 2 µg/mL (≈ 3.49 µM)
[12]
  MIC: 0.5 µg/mL (≈ 0.873 µM)
[13]
  MIC: 8 µg/mL (≈ 14 µM)
[14]
  MIC: 4 µg/mL (≈ 6.99 µM)

## CO/N=C1\CCN(c2c(F)cc3c(=O)c(C(=O)O)cn(C4CC4)c3c2OC)CC1NC(=O)[C@@H](N)C(C)C (some centres not stated)
[1]
  MIC: 0.25 µg/mL (≈ 0.483 µM)
[2]
  MIC: 4 µg/mL (≈ 7.73 µM)
[3]
  MIC: 64 µg/mL (≈ 124 µM)
[4]
  MIC: 64 µg/mL (≈ 124 µM)
[5]
  MIC: 32 µg/mL (≈ 61.8 µM)

## CO/N=C1\CCN(c2c(F)cc3c(=O)c(C(=O)O)cn(C4CC4)c3c2OC)CC1NC(=O)[C@H](C)N (some centres not stated)
[1]
  MIC: 0.125 µg/mL (≈ 0.255 µM)
[2]
  MIC: 4 µg/mL (≈ 8.17 µM)
[3]
  MIC: 32 µg/mL (≈ 65.4 µM)
[4]
  MIC: 64 µg/mL (≈ 131 µM)
[5]
  MIC: 64 µg/mL (≈ 131 µM)

## COc1c(N2C[C@H]3CCCN(C(O)Cn4cc([N+](=O)[O-])nc4Cl)[C@H]3C2)c(F)cc2c(=O)c(C(=O)O)cn(C3CC3)c12 (some centres not stated)
[9]
  MIC: 0.125 µg/mL (≈ 0.212 µM)
[10]
  MIC: 0.5 µg/mL (≈ 0.846 µM)
[11]
  MIC: > 32 µg/mL
[12]
  MIC: 0.25 µg/mL (≈ 0.423 µM)
[13]
  MIC: 16 µg/mL (≈ 27.1 µM)
[14]
  MIC: 2 µg/mL (≈ 3.38 µM)

## CCn1cc(C(=O)O)c(=O)c2cc(F)c(N3CCCCC3)c(Cl)c21
[6]
  MIC: 128 µg/mL (≈ 363 µM)
[7]
  MIC: 2 µg/mL (≈ 5.67 µM)
[8]
  MIC: 128 µg/mL (≈ 363 µM)

## CCn1cc(C(=O)O)c(=O)c2cc(F)c(N3CCNC(C)C3)c(Cl)c21 (configuration not stated)
[6]
  MIC: 4.83 µg/mL (≈ 13.1 µM)
[7]
  MIC: 1.21 µg/mL (≈ 3.29 µM)
[8]
  MIC: 0.3 µg/mL (≈ 0.816 µM)

## CO/N=C1\CCN(c2c(F)cc3c(=O)c(C(=O)O)cn(C4CC4)c3c2OC)CC1NC(=O)[C@H]1CCCN1 (some centres not stated)
[1]
  MIC: 0.25 µg/mL (≈ 0.485 µM)
[2]
  MIC: 4 µg/mL (≈ 7.76 µM)
[3]
  MIC: 64 µg/mL (≈ 124 µM)
[4]
  MIC: 64 µg/mL (≈ 124 µM)
[5]
  MIC: 64 µg/mL (≈ 124 µM)

## CCC(C)[C@H](N)C(=O)NC1CN(c2c(F)cc3c(=O)c(C(=O)O)cn(C4CC4)c3c2OC)CC/C1=N\OC (some centres not stated)
[1]
  MIC: 0.5 µg/mL (≈ 0.941 µM)
[2]
  MIC: 8 µg/mL (≈ 15 µM)
[3]
  MIC: 64 µg/mL (≈ 120 µM)
[4]
  MIC: 64 µg/mL (≈ 120 µM)
[5]
  MIC: 128 µg/mL (≈ 241 µM)

## CCn1cc(C(=O)O)c(=O)c2cc(F)c(N3CCCC(C)C3)cc21 (configuration not stated)
[6]
  MIC: 1.28 µg/mL (≈ 3.85 µM)
[7]
  MIC: < 0.125 µg/mL
[8]
  MIC: 1.28 µg/mL (≈ 3.85 µM)

## CCn1cc(C(=O)O)c(=O)c2cc(F)c(N3CCNC(C)C3)c(Cl)c21.Cl (configuration not stated)
[6]
  MIC: 128 µg/mL
[7]
  MIC: 2 µg/mL
[8]
  MIC: 31.2 µg/mL

## COc1c(N2C[C@@H]3CCCN(CC(O)Cn4cc([N+](=O)[O-])nc4C)[C@@H]3C2)c(F)cc2c(=O)c(C(=O)O)cn(C3CC3)c12 (some centres not stated)
[9]
  MIC: 0.125 µg/mL (≈ 0.214 µM)
[10]
  MIC: 0.5 µg/mL (≈ 0.855 µM)
[11]
  MIC: 8 µg/mL (≈ 13.7 µM)
[12]
  MIC: 0.25 µg/mL (≈ 0.428 µM)
[13]
  MIC: 8 µg/mL (≈ 13.7 µM)
[14]
  MIC: 4 µg/mL (≈ 6.84 µM)
